B1: Phenylethanolamine N-methyltransferase (Bos taurus), P10938 (protein)
chain: MSGTDRSQAAGAVPDSDPGLAAVSSAYQRFEPRAYLRNNYAPPRGDLSCPDGVGPWKLRCLAQTFATGEVSGRTLIDIGSGPTIYQLLSACAHFEDITMTDFLEVNRQELRLWLREEPGAFDWSVYSQHVCLIEGKGESWQEKECQLRARVKRILPIDVHRPQPLGAGGLAPLPADALVSAFCLEAVSPDLASFQRALDHITTLLRPGGHLLLIGALEESWYLAGEARLAVVPVREEEVREALVRTATRCGICARTPMPAHLQTGVDDVKGIFFTRAQKKVGV

Legend:
[1] = target: T1, Phenylethanolamine N-methyltransferase (Bos taurus, UniProt P10938); test: (§1) Inhibition of Phenylethylamine N-Methyltransferase (PNMT) using radiochemical assay
T1 sequence (P10938 whole entry): B1 chain

[2] = compound: N[C@@H]1C2CCC1c1cccc(C(F)(F)F)c1C2; test: as §1
[3] = compound: NC1C2CC[C@H]1c1ccccc12; test: as §1
[4] = compound: N[C@@H]1C2CCC1c1ccc(C(F)(F)F)cc1C2; test: as §1
[5] = compound: N[C@H]1C2CCC1c1cc(C(F)(F)F)ccc12; test: as §1
[6] = compound: N[C@@H]1CC2C[C@@H]1c1ccccc12; test: as §1
[7] = compound: N[C@@H]1CC2CC1c1ccc(C(F)(F)F)cc12; test: as §1
[8] = compound: N[C@@H]1CC2CC1c1cccc(C(F)(F)F)c12; test: as §1

Row | Molecule | Ki [1] [µM] | other results
1 | N[C@@H]1C2CCC1c1cc(C(F)(F)F)ccc1C2 (some centres not stated) | 31.8 | –
2 | N[C@H]1C2CCC1c1c2cccc1C(F)(F)F (some centres not stated) | 12.1 | –
3 | N[C@@H]1C2CCC1c1c(cccc1C(F)(F)F)C2 (some centres not stated) | 51.1 | –
4 | NC1CCc2ccccc2C1 (configuration not stated) | 15 | –
5 | N[C@H]1C2CCC1c1c(cccc1C(F)(F)F)C2 (some centres not stated) | 191 | –
6 | N[C@@H]1CC2CCC1c1ccccc12 (some centres not stated) | 1300 | –
7 | N[C@@H]1CC2CC1c1cc(C(F)(F)F)ccc12 (some centres not stated) | 204 | –
8 | N[C@H]1C2CCC1c1cccc(C(F)(F)F)c1C2 (some centres not stated) | 1430 | –
9 | N[C@@H]1C2CCC1c1ccccc1C2 (some centres not stated) | 106 | –
10 | N[C@@H]1CC2CC1c1c2cccc1C(F)(F)F (some centres not stated) | 350 | –
11 | N[C@H]1C2CCC1c1ccc(C(F)(F)F)cc1C2 (some centres not stated) | 1800 | –
12 | N[C@H]1C2CCC1c1cc(C(F)(F)F)ccc1C2 (some centres not stated) | 801 | –
13 | NC1C2CC[C@H]1c1ccccc12 (some centres not stated) | 258 | –
14 | N[C@H]1C2CCC1c1ccccc1C2 (some centres not stated) | 8900 | –
15 | B1 | – | Km [2]: 34.4 µM; Vmax [2]: 0.52 nmol/min/mg; Km [3]: 151 µM; Vmax [3]: 0.17 nmol/min/mg; Km [4]: 45.8 µM; Vmax [4]: 0.46 nmol/min/mg; Km [5]: 14.6 µM; Vmax [5]: 0.57 nmol/min/mg; Vmax [6]: 0.04 nmol/min/mg; Km [7]: 52 µM; Vmax [7]: 1.38 nmol/min/mg; Km [8]: 33 µM; Vmax [8]: 0.49 nmol/min/mg

Source: ChEMBL document CHEMBL1123862, “Binding orientation of amphetamine and norfenfluramine analogues in the benzonorbornene and benzobicyclo[3.2.1]octane ring systems at the active site of phenylethanolamine N-methyltransferase (PNMT)” (J Med Chem, 1987)
